Reference: patent publication US9622479B2, “Boron complexes with gradual 1-methylcyclopropene releasing capability” (The United States of America, as represented by the …, priority 2014, dated 2017)

Key:
[1] = GC head space analysis of 1-MCP release from boron complexes mixed with water; assay type: physicochemical; conditions: for amount of 1-MCP released in first 24 hours (releasing curves): FIGS. 4 & 7; for consistency in releasing 1-MCP over time: FIGS. 4-7, compared with complex 2; for release of 1-MCP with time (MCP releasing curve): complex mixed vigorously with H2O in air-tight vial, head space vapor injected in GC
Method: Investigation of releasing 1-MCP from the boron complexes of MCP (1, 2, 3,4): Without being bound by theory, due to the moisture sensitivity of the boron complexes, the nucleophilic attack of hydroxide ion (OH—) toward the boron atom triggered the breaking of the B-C bond releasing 1-MCP as a gas.
(§1) GC analysis of dicyclohexyl-(2-methylene-cyclopropyl)-borane (1): 140 mg of the complex was mixed vigorously with 0.6 mL of H2O in a 1.5 mL air-tight vial. The vapor collected (8 μl) from the head space of the solution was injected in a GC with an MXTR-1 column. The data were compared with a reference standard of 1-MCP.
as §1, with “dihexyl-(2-methylene-cyclopropyl)-borane (2): 291” for “dicyclohexyl-(2-methylene-cyclopropyl)-borane (1): 140”, “1.0” for “0.6”, “3” for “1.5”, “(100 μL)” for “(8 μl)”
as §1, with “tris-(2-methylene-cyclopropyl)-borane (3): 94” for “dicyclohexyl-(2-methylene-cyclopropyl)-borane (1): 140”, “0.4” for “0.6”, “μL)” for “μl)”
GC analysis of diphenyl-(2-methylene-cyclopropyl)-borane (4): 393 mg of the complex was mixed vigorously with 2.0 mL of H2O in a 3 mL air-tight vial. The vapor collected from the head space of the solution was injected in a Hewlett-Packard 5890 GC with capillary column (30 m×0.25 mm i.d.) coated with a 0.25 μm film of 5% phenyl methyl silicon and a flame ionization detector. The temperature of GC was programmed at 30° C. isothermal with an injection point temperature of 50° C. The detector was operated at 230° C. and sample was injected under split less condition. Helium was used as carrier gas with a 1.5 mL/min column flow.
However, during this analysis it was observed that some other compounds were also released. Those compounds formed due to the breakage of other B-C bonds were cyclohexane and cyclohexanol from complex 1 or hexane and hexanol from complex 2. Complex 3 also released some byproducts either by incomplete hydrolysis of the complex or Markovnikov addition of H2O.

tomatoes = experiment: Comparative quality analysis of tomatoes treated with DCMB (1) and DPMB (4); assay type: in vivo; conditions: for darkness (L*) of tomatoes during storage / redness (a*/b*) of tomatoes during storage: 7 days storage at 22±2° C.; for darkness (L*) of tomatoes during storage: FIG. 14; for redness (a*/b*) of tomatoes during storage: FIG. 15; for average firmness of tomatoes: day 7, storage at 22±2° C., FIG. 16
Method: (§2) For the comparative studies between DCMB (1) and DPMB (4), experiment was performed with three 1-gal airtight jars containing eight tomatoes each which were collected from the same source but different time. One jar was used as blank containing no complex and the other two jars Were treated with equivalent amount of DCMB (1) (393 mg) and DPMB (4) (376.5 mg) complex respectively arid water (2 mL), The concentration of released 1-MCP inside the jars was calculated by GC analysis after 24 hour treatment The treated and untreated tomatoes were subjected to quality analysis under identical conditions.
Quality Analysis: Noninoculated tomatoes were treated with Boron complex 1 as described before and kept in open air for 9 days. Quality analysis (color and firmness) was performed at 22±2° C. Color was measured with a Hunter UltraScan® VIS colorimeter (Hunter Associates Lab, Reston, Va.) and firmness was evaluated with a TA-XT2i Texture Analyzer (Texture Technologies Corp., Scarsdale, N.Y.). Four measurements were taken for each tomato for color and firmness. The color of the tomatoes was measured seven times during the investigation period and firmness was determined at the end of 9th day.
Similar results were found in a*/b* value (FIG. 15). […] The firmness data of the treated tomatoes was compared to that of non-treated tomatoes at Day 7 (NT-7D, Exp 2) and also at Day 0 (NT-OD, Exp 2), which were collected from the same batch. […] However, a significant difference was observed between the non-treated tomatoes at day 7 (2.68 kg) and non-treated fruits at day 0.

[2] = 1-MCP concentration inside the jars by GC analysis after 24 hour treatment; assay type: physicochemical; conditions: 1-gal airtight jars, equivalent amount of complex, 2 mL water
Method: (§3) Boron complex 1 was tested on green tomatoes. Six 3.9 L air tight glass jars were taken for investigation containing five green tomatoes each. The tomatoes in three jars were treated with 1-MCP released from the reaction between Boron complex 1 and water in a 14 mL vial with continuous stirring, which was placed inside the jars. The other jars were kept in identical condition without placing any boron complex inside. The treatment was carried out for 24 hours. The concentration level of 1-MCP was determined (9 to 13 μLL^-1) after 24 hours of reaction by GC analysis using 2-methyl-1-propene as a standard. After 24 hours treatment all the tomatoes were kept in open environment and monitored for their color changes.
as §2

green tomatoes = experiment: Green tomatoes treated with 1-MCP released from Boron complex 1 and water; color and firmness quality analysis; assay type: in vivo
Method: as §3, with “changes. Quality Analysis: Noninoculated tomatoes were treated with Boron complex 1 as described before and kept in open air for 9 days. Quality analysis (color and firmness) was performed at 22±2° C. Color was measured with a Hunter UltraScan® VIS colorimeter (Hunter Associates Lab, Reston, Va.) and firmness was evaluated with a TA-XT2i Texture Analyzer (Texture Technologies Corp., Scarsdale, N.Y.). Four measurements were taken for each tomato for color and firmness. The color of the tomatoes was measured seven times during the investigation period and firmness was determined at the end of 9th day.” for “changes.”

Compound | amount of 1-MCP released in first 24 hours (releasing curves) [1] | consistency in releasing 1-MCP over time [1] | area ratio of released 1-MCP over cyclohexane vs. temperature ([1]; GC experiment at different temperatures, FIG. 8) | release of 1-MCP with time (MCP releasing curve) [1] | darkness (L*) of tomatoes during storage (tomatoes) | redness (a*/b*) of tomatoes during storage (tomatoes) | average firmness of tomatoes (tomatoes) | concentration of 1-MCP [2] | tomato color at the end of nine days (green tomatoes; 24 hours treatment, then open environment, all untreated turned red) | tomato color after 4 days (green tomatoes; 24 hours treatment, then open environment, untreated turned yellow) | darkness (L*) of tomatoes during storage (green tomatoes; 9 days storage at 22±2° C., FIG. 10) | redness (a*/b*) of tomatoes during storage (green tomatoes; 9 days storage at 22±2° C., FIG. 11) | firmness of tomatoes (green tomatoes; end of 9th day, storage at 22±2° C., FIG. 12) | foreign spots on the surface of the treated tomatoes (green tomatoes; in vivo)
C=C1CC1B(C1CCCCC1)C1CCCCC1 (centres unmarked) [complex 1, dicyclohexyl-(2-methylene-cyclopropyl)-borane] | near to its highest point in first 24 hours | more consistent in releasing 1-MCP over time | increased at lower temperature | released gradually with time | did not significantly change | did not change significantly or increased very slowly | 4.20 kg | 5 μLL-1 | half of the treated tomatoes were still green | remained green | did not significantly change | increased slowly but not in significant value | 1.42 (±0.35) kg | No foreign spots were observed
C=C1CC1B(CCCCCC)CCCCCC (centres unmarked) [complex 2, dihexyl-(2-methylene-cyclopropyl)-borane] |  |  |  | released gradually with time |  |  |  |  |  |  |  |  |  | 
C=C1CC1B(C1CC1=C)C1CC1=C (centres unmarked) [complex 3, tris-(2-methylene-cyclopropyl)-borane] |  | more consistent in releasing 1-MCP over time |  | released gradually with time |  |  |  |  |  |  |  |  |  | 
C=C1CC1B(c1ccccc1)c1ccccc1 (centres unmarked) [complex 4, diphenyl-(2-methylene-cyclopropyl)-borane] | relatively low in first 24 hours |  |  | released gradually with time | remained in the middle | slower increase than the non-treated tomatoes | 3.10 kg | 1 μLL-1 |  |  |  |  |  | 
